These are literature values, as cited in patent publication US8329742B2, “Macrocyclic compounds useful as pharmaceuticals” (EISAI Co., Ltd., priority 2002, dated 2012).

One data set concerns the target Map/Erk kinase (MEK) (Homo sapiens, UniProt Q02750).
For data set [1] the following is noted: susceptible to enone isomerization in mouse and human plasma.

Each structure is given as a SMILES string.

Chain of Map/Erk kinase (MEK) (Q02750 whole entry): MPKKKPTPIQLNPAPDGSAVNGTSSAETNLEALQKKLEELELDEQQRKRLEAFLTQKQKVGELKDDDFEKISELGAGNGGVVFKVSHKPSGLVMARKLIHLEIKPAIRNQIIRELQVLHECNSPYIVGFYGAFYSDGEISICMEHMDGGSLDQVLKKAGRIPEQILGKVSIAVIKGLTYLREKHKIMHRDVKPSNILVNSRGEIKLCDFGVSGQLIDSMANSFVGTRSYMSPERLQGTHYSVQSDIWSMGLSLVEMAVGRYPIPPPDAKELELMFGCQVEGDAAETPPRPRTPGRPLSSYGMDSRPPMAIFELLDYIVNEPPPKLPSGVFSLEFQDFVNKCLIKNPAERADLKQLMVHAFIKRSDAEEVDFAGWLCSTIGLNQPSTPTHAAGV

For `COc1cc(O)c2c(c1)/C=C/C[C@H](O)[C@H](O)C(=O)/C=C\C[C@H](C)OC2=O` [Compound F152], at Map/Erk kinase (MEK), the “inhibition of Map/Erk kinase (MEK)” value is “inhibit”. Further, in data set [1], the biological stability result is listed as “biologically unstable”.
